Holding throughout (assay type): in vivo
The test system of assay [1] is Viola tricolor. Nature of the assay: Post-emergence herbicidal efficacy, VIOTR. Conditions: application rate 320 g/ha, rated visually after about 3 weeks (Table B5). The gist of the method:
(§1)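 Greenhouse plants in sandy loam were sprayed at the one-leaf stage, 2–3 weeks after sowing. After about 3 weeks, activity was rated visually against untreated controls, from 0% (like control) to 100% (plants dead).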

In assay [2] the test system is harmful plants. The experiment in a line: Pre-emergence herbicidal action. Conditions: applied pre-emergence. From the text: C.1 Pre-Emergence Herbicidal Action and Crop Plant Compatibility
Seeds of monocotyledonous and dicotyledonous weed plants and crop plants are placed in plastic or organic planting pots and covered with soil. The compounds of the invention, formulated in the form of wettable powders (WP) or as emulsion concentrates (EC), are then applied onto the surface of the covering soil as aqueous suspension or emulsion with addition of 0.5% additive at a water application rate of […] (converted). After the treatment, the pots are placed in a greenhouse and kept under good growth conditions for the trial plants. After about 3 weeks, the effect of the preparations is scored visually in comparison with untreated controls as percentages. For example, 100% activity=the plants have died, 0% activity=like control plants.

The test system of assay [3] is Veronica persica. The experiment in a line: Pre-emergence herbicidal efficacy, VERPE. Particulars: Table B1, application rate 320 g/ha, scored visually after about 3 weeks vs untreated controls. The gist of the method:
(§2)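 Visual percent activity relative to untreated plants (0% = like control, 100% = dead), scored about 3 weeks after treatment under greenhouse conditions.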

For assay [4], the system named is Lolium rigidum. Nature of the assay: Pre-emergence herbicidal efficacy, LOLRI. Conditions: Table B1, application rate 320 g/ha, scored visually after about 3 weeks vs untreated controls. The gist of the method:
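Seeds sown in pots and covered with soil. Greenhouse-grown about 3 weeks, then visually scored as % activity vs untreated controls (100% = dead, 0% = like control).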

Assay [5] deals with Lolium rigidum. Nature of the assay: Post-emergence herbicidal efficacy, LOLRI. Conditions: application rate 320 g/ha, rated visually after about 3 weeks. Here is the method: (§3) C.2 Post-Emergence Herbicidal Action and Crop Plant Compatibility
(§4) Seeds of monocotyledonous and dicotyledonous weeds and crop plants are placed in sandy loam in plastic or organic planting pots, covered with soil and cultivated in a greenhouse under controlled growth conditions. 2 to 3 weeks after sowing, the test plants are treated at the one-leaf stage. The compounds of the invention, formulated in the form of wettable powders (WP) or as emulsion concentrates (EC), are then sprayed onto the green parts of the plants as aqueous suspension or emulsion with addition of 0.5% additive at a water application rate of […] (converted). After the test plants had been kept in the greenhouse under optimum growth conditions for about 3 weeks, the activity of the preparations is rated visually in comparison to untreated controls. For example, 100% activity=the plants have died, 0% activity=like control plants.

In assay [6] the test system is Setaria viridis. Nature of the assay: Pre-emergence herbicidal efficacy, SETVI. Particulars: Table B1, application rate 320 g/ha, scored visually after about 3 weeks vs untreated controls. Put shortly:
as §2

Assay [7] deals with Veronica persica. Nature of the assay: Post-emergence herbicidal efficacy, VERPE. Particulars: application rate 320 g/ha. Put shortly:
as §1

In assay [8] the test system is Polygonum convolvulus. The experiment in a line: Pre-emergence herbicidal efficacy, POLCO. Conditions: Table B1, application rate 320 g/ha, scored visually after about 3 weeks vs untreated controls. The gist of the method: as §2
In assay [9] the test system is Amaranthus retroflexus. Nature of the assay: Pre-emergence herbicidal efficacy, AMARE. Conditions: Table B1, application rate 320 g/ha, scored visually after about 3 weeks vs untreated controls. The gist of the method: as §2
In assay [10] the test system is harmful plants. Nature of the assay: Post-emergence herbicidal action. Particulars: applied post-emergence. The method, then: as §3, §4
Assay [11] relates to Echinochloa crus-galli. The experiment in a line: Post-emergence herbicidal efficacy, ECHCG. Particulars: application rate 320 g/ha, rated visually after about 3 weeks.
From the text: (§5) ABUTH: Abutilon theophrasti ALOMY: Alopecurus myosuroides AMARE: Amaranthus retroflexus AVEFA: Avena fatua CYPES: Cyperus esculentus ECHCG: Echinochloa crus-galli LOLMU: Lolium multiflorum MATIN: Matricaria inodora PHBPU: Ipomoea purpurea POLCO: Polygonum convolvulus SETVI: Setaria viridis STEME: Stellaria media VERPE: Veronica persica VTOTR: Viola tricolor
as §3, §4

The subject of assay [12] is Stellaria media. Nature of the assay: Pre-emergence herbicidal efficacy, STEME. Particulars: Table B1, application rate 320 g/ha, scored visually after about 3 weeks vs untreated controls. The gist of the method:
as §2

Assay [13] concerns Echinochloa crus-galli. Nature of the assay: Pre-emergence herbicidal efficacy, ECHCG. Conditions: Table B1, application rate 320 g/ha, scored visually after about 3 weeks vs untreated controls. Put shortly:
as §2

In assay [14] the test system is Amaranthus retroflexus. Nature of the assay: Post-emergence herbicidal efficacy, AMARE. Particulars: application rate 320 g/ha.
From the text: as §5, §3, §4

Assay [15] concerns Abutilon theophrasti. The experiment in a line: Pre-emergence herbicidal efficacy, ABUTH. Particulars: Table B1, application rate 320 g/ha, scored visually after about 3 weeks vs untreated controls. The gist of the method:
as §2

Assay [16] relates to Matricaria inodora. The experiment in a line: Pre-emergence herbicidal efficacy, MATIN. Particulars: Table B1, application rate 320 g/ha, scored visually after about 3 weeks vs untreated controls. The gist of the method: as §2
Assay [17] concerns Stellaria media. The experiment in a line: Post-emergence herbicidal efficacy, STEME. Conditions: application rate 320 g/ha, rated visually after about 3 weeks.
From the text: as §5, §3, §4

Assay [18] deals with Viola tricolor. Nature of the assay: Pre-emergence herbicidal efficacy, VIOTR. Particulars: Table B1, application rate 320 g/ha, scored visually after about 3 weeks vs untreated controls. The gist of the method:
as §2

Assay [19] concerns Abutilon theophrasti. Nature of the assay: Post-emergence herbicidal efficacy, ABUTH. Conditions: Table B6, one-leaf stage, application rate 320 g/ha, rated visually after about 3 weeks vs untreated controls.
From the text: as §5, §3, §4

Assay [20] has as its system Setaria viridis. The experiment in a line: Post-emergence herbicidal efficacy, SETVI. Conditions: Table B6, one-leaf stage, application rate 320 g/ha, rated visually after about 3 weeks vs untreated controls.
From the text: as §5, §3, §4

Where [21] appears, read: Table B6, one-leaf stage, rated visually after about 3 weeks vs untreated controls.

As for `Cc1ccc2c(c1)C(Nc1nc3n(n1)CCC(=O)N3C)CCC2` (stereo not shown) [Example I-231], the “Herbicidal efficacy against VIOTR” value is 90% in assay [1] and 100% in assay [18]. The “herbicidal efficacy against harmful plants” value in assay [2] and in [10] was “very good herbicidal efficacy” in each case. Further, the figures for the “Herbicidal efficacy against VERPE” value in [3] and in assay [7] (rated visually after about 3 weeks (Table B5)) were 100% and 90%, respectively. Also, the “Herbicidal efficacy against LOLRI” value in assay [4] turned out to be 100%; in assay [5] it was 80%. The “Herbicidal efficacy against SETVI” value in [6] is given as 100%. The “Herbicidal efficacy against POLCO” value in assay [8] was determined as 100%. Besides, the figures for the “Herbicidal efficacy against AMARE” value in [9] and in [14] (rated visually after about 3 weeks) were 100% and 80%, respectively. Further, the “Herbicidal efficacy against ECHCG” value in assay [11] and in assay [13] was 100% each time. Moreover, the “Herbicidal efficacy against STEME” value in [12] worked out at 100%; in assay [17], 80%. Further, the “Herbicidal efficacy against ABUTH” value in assay [15] is on record as 100%. Besides, in [16], the “Herbicidal efficacy against MATIN” value amounted to 100%.

Regarding `Cc1ccc2c(c1)[C@H](Nc1nc3n(n1)CCN(S(=O)(=O)C(C)C)C3)CCC2` [Example I-199], in assay [2], the “herbicidal efficacy against harmful plants” value is reported as “very good herbicidal efficacy”. Moreover, in [3], the “Herbicidal efficacy against VERPE” value was 100%. In addition, the “Herbicidal efficacy against LOLRI” value in [4] was 100%. Also, the “Herbicidal efficacy against SETVI” value in assay [6] stood at 100%. Besides, in assay [8], the “Herbicidal efficacy against POLCO” value worked out at 100%. Further, in assay [9], the “Herbicidal efficacy against AMARE” value amounted to 100%. Moreover, in assay [12], the “Herbicidal efficacy against STEME” value is 100%. Further, the “Herbicidal efficacy against ECHCG” value in assay [13] is listed as 100%. Also, the “Herbicidal efficacy against ABUTH” value in [15] is listed as 100%. Besides, the “Herbicidal efficacy against MATIN” value in assay [16] is listed as 100%. Also, the “Herbicidal efficacy against VIOTR” value in assay [18] stood at 100%.

Regarding `Cc1ccc2c(c1)[C@H](Nc1nc3n(n1)CCCCS3)CCO2` [Example I-377], the “Herbicidal efficacy against VERPE” value in assay [3] turned out to be 100%; in assay [7] (setting [21]), 90%. In addition, in [4], the “Herbicidal efficacy against LOLRI” value was 100%. Moreover, the “Herbicidal efficacy against ABUTH” value in [19] is 80%; in assay [15], 100%. Moreover, the “Herbicidal efficacy against SETVI” value in assay [6] is reported as 100%; in assay [20] it was 90%. Further, the “Herbicidal efficacy against POLCO” value in [8] amounted to 100%. Also, the “Herbicidal efficacy against AMARE” value in assay [9] is reported as 100%; in assay [14] (setting [21]), 80%. For the same compound, in assay [12], the “Herbicidal efficacy against STEME” value stood at 100%. Moreover, in assay [13], the “Herbicidal efficacy against ECHCG” value worked out at 100%. Also, in [16], the “Herbicidal efficacy against MATIN” value was found to be 100%. Besides, the “Herbicidal efficacy against VIOTR” value in [18] is 100%.

Source of the values: patent US20200331904A1, “3-AMINO-[1,2,4]-TRIAZOLE DERIVATIVES AND THEIR USE FOR CONTROLLING UNDESIRED PLANT GROWTH” (Bayer CropScience Aktiengesellschaft, priority 2017, published 2020).
